Reference: PMC8811960, “A Novel 2-Carbon-Linked Dimeric Artemisinin With Potent Antileukemic Activity and Favorable Pharmacology” (Frontiers in Oncology, 2022)

Legend:
[1] = test system: HL60; assay: alamarBlue growth inhibition, HL60; type: cell-based; conditions: Homo sapiens, HL-60, HL60, 48h, mean of 2 independent assays ± SD
Method: (§1) Cytotoxicity was assessed using alamarBlue assays (Life Technologies, Grand Island, NY) following manufacturer’s guidelines. Cell death was verified by Annexin V/7-aminoactinomycin D (7AAD) staining (BioLegend, San Diego, CA) per manufacturer’s guidelines.

[2] = test system: ML2; assay: alamarBlue growth inhibition, ML2; type: cell-based; conditions: Homo sapiens, ML-2, ML2, 48h, mean of 2 independent assays ± SD
Method: as §1

[3] = test system: MOLM14; assay: alamarBlue growth inhibition, MOLM14; type: cell-based; conditions: Homo sapiens, MOLM-14; MOLM14, 48h, alamarBlue, mean of 2 independent assays ± SD; read-out: IC50
Method: as §1
In this experiment, provided to show the entire concentration:response range, MOLM14 AML cells were cultured with a range of concentrations of artesunate (AS), ART838, ART631, and ART576 for 48h. Graph indicates growth inhibition relative to vehicle (DMSO)-treated controls by alamarBlue absorbance assays. Data points and error bars represent mean and SD of 3 independent experiments done in triplicate.

[4] = test system: MV4;11; assay: alamarBlue growth inhibition, MV4;11; type: cell-based; conditions: Homo sapiens, MV4;11, 48h, mean of 2 independent assays ± SD
Method: as §1

[5] = Stability in mouse plasma (EDTA); type: in vitro ADME; conditions: 10 µM, 37°C, 1h
Method: The metabolic stability of ART631 was assessed in human and mouse plasma and liver microsomes (LM). For phase I microsomal stability assays, analogs (10 µM in <1% acetonitrile) were incubated in PBS containing liver microsomes, with or without cofactors ([22]). Microsomal controls (without cofactors) were used to determine non-enzymatic degradation. All experiments were incubated at 37°C for 1h and performed in duplicate. Reactions were stopped with acetonitrile and analyzed as described below.
ART631 was extracted from 25 µL plasma or microsomal solutions with 100 µL acetonitrile containing artemisinin (i.e. the natural product) as internal standard. […] Mobile phase A was ammonium acetate (2mM) containing 0.1% formic acid, and mobile phase B was acetonitrile containing 0.1% formic acid. The gradient started with mobile phase B and was held at 40% for 0.5 minutes with a flow rate of 0.4 mL/min, then increased to 100% over 1.5 minutes and held for 2.0 minutes, and finally returned back to 40% mobile phase B and allowed to equilibrate for 2.0 minutes. An AB Sciex 5500 triple quadrupole mass spectrometer operated in positive electrospray ionization mode was used for the detection of ART631. For stability studies, the ratio of ART631 to the internal standard, artemisinin, was assessed. […]

[6] = test system: MV4;11 AML xenografts; assay: luc-labeled MV4;11 AML cell line xenograft; type: in vivo, NRG mice; conditions: MV4;11 xenograft, 15 mg/kg/d PO, 5 days on, 9 days off, 5 cycles
Description: Immunodeficient NOD-Rag1^nullIL2rg^null (NRG) mice were purchased from Jackson Laboratory (Bar Harbor, ME), bred and housed at the University of Maryland Baltimore. Similar to our previous publication ([20]). mice were transplanted IV with luc-labeled human AML cell lines or cryopreserved AML patient cells on day -10, and baseline total body luminescence was quantified on day 0 by Xenogen bioluminescence imaging (Xenogen IVIS Spectrum; PerkinElmer, Waltham, MA). Mice were allocated to treatment groups so that each group had similar average day 0 luminescence, then groups were administered drugs per oral (PO; gavage). Luminescence of each mouse was assessed over time and compared with that mouse’s day 0 luminescence (fold-change AML burden). Clinical behavior, appearance, weight, and survival were also monitored.
Using our previously determined 5-day MTD SAV drug schedule (i.e. 5-day treatment cycles consisting of 15 mg/kg/d ART631 combined with 150 mg/kg/d VEN and 30 mg/kg/d SOR, followed by 9 days off drug; schematic in Figure 7A ), we assessed treatment of established human luc-labeled MV4;11 ( Figures 7B–D ) and MOLM14 AML ( Figures 8A–C ) cell line xenografts with VEN plus SOR plus ART631 in NRG mice ( Figures 7B , 8A ). […]

[7] = test system: MOLM14, MV4;11, and HL60 human AML cells; design: method as in PMID 33560385; conditions: ART631 200 nM, VEN 50 nM, SOR 5 µM; MOLM14, MV4;11, HL60; cited from earlier work

In the case of `C=CCO/N=C(/C[C@H]1O[C@@H]2O[C@@]3(C)CC[C@H]4[C@H](C)CC[C@@H]([C@H]1C)[C@@]24OO3)[C@H]1O[C@@H]2O[C@@]3(C)CC[C@H]4[C@H](C)CC[C@@H]([C@H]1C)[C@@]24OO3` [ART631], the IC50 [1] is reported as 41 ± 9 nM, the IC50 [2] is reported as 34 ± 4 nM and the IC50 [3] is reported as 32 ± 4 nM. The IC50 [4] was 27 ± 2 nM, the “percentage remaining, Plasma (EDTA) Mouse” value [5] was 62% and the “antileukemic activity of monotherapy” value [6] was “no activity”. For the same compound, the “cell death as single agents” value [7] was “less than 15%”.
